Data taken from ChEMBL document CHEMBL5058648, “Data for DCP probe SAFit2” (2022).

Tests used:
[1] = target: Alpha-2A adrenergic receptor (Homo sapiens) (UniProt P08913); conditions: Compound concentration 10.0 uM
[2] = target: Muscarinic acetylcholine receptor M1 (Homo sapiens) (UniProt P11229); conditions: Compound concentration 10.0 uM
[3] = target: 5-hydroxytryptamine receptor 7 (Homo sapiens) (UniProt P34969); conditions: Compound concentration 10.0 uM
[4] = target: Peptidyl-prolyl cis-trans isomerase FKBP2 (Homo sapiens, UniProt P26885); experiment: Competitive fluorescence polarization binding assay (FKBP2)
[5] = target: Alpha-2C adrenergic receptor (Homo sapiens) (UniProt P18825); conditions: Compound concentration 10.0 uM
[6] = target: Beta-3 adrenergic receptor (Homo sapiens) (UniProt P13945); conditions: Compound concentration 10.0 uM
[7] = target: 5-hydroxytryptamine receptor 1B (Homo sapiens) (UniProt P28222); conditions: Compound concentration 10.0 uM
[8] = target: 5-hydroxytryptamine receptor 5A (Homo sapiens) (UniProt P47898); conditions: Compound concentration 10.0 uM
[9] = target: D(1B) dopamine receptor (Homo sapiens) (UniProt P21918); conditions: Compound concentration 10.0 uM
[10] = target: Beta-2 adrenergic receptor (Homo sapiens) (UniProt P07550); conditions: Compound concentration 10.0 uM
[11] = target: Peptidyl-prolyl cis-trans isomerase FKBP4 (Homo sapiens, UniProt Q02790); experiment: Competitive fluorescence polarization binding assay (FKBP4)
[12] = target: T1, Sodium-dependent dopamine transporter (Homo sapiens, UniProt Q01959); conditions: Compound concentration 10.0 uM
T1 sequence (Q01959 whole entry): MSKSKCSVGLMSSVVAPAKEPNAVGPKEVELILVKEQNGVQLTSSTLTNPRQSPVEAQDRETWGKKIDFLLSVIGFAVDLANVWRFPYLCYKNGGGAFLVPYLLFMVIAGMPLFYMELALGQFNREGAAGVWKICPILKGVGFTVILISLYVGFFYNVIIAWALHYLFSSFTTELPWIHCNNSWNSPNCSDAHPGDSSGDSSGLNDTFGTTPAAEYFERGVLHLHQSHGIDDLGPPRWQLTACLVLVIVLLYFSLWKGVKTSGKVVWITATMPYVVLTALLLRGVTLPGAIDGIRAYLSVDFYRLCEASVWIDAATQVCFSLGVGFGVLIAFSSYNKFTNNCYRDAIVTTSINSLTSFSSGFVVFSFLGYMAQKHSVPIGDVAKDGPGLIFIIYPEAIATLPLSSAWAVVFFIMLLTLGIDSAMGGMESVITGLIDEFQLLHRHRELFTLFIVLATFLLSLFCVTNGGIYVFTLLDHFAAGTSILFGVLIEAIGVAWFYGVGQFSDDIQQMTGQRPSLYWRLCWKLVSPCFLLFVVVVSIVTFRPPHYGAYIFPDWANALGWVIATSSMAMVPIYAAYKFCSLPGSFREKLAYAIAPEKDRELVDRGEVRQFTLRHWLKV

[13] = target: T2, Sigma non-opioid intracellular receptor 1 (Homo sapiens, UniProt Q99720); conditions: Compound concentration 10.0 uM
T2 sequence (Q99720 whole entry): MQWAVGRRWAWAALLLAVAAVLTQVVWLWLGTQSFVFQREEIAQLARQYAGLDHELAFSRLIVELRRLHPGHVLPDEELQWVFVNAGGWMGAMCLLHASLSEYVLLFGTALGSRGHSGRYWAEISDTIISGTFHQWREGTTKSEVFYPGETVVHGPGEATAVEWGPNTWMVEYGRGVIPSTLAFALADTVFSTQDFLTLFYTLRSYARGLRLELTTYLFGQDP

[14] = target: 5-hydroxytryptamine receptor 2C (Homo sapiens) (UniProt P28335); conditions: Compound concentration 10.0 uM
[15] = target: Kappa-type opioid receptor (Homo sapiens) (UniProt P41145); conditions: Compound concentration 10.0 uM
Sequence of Kappa-type opioid receptor (Homo sapiens) (P41145 whole entry): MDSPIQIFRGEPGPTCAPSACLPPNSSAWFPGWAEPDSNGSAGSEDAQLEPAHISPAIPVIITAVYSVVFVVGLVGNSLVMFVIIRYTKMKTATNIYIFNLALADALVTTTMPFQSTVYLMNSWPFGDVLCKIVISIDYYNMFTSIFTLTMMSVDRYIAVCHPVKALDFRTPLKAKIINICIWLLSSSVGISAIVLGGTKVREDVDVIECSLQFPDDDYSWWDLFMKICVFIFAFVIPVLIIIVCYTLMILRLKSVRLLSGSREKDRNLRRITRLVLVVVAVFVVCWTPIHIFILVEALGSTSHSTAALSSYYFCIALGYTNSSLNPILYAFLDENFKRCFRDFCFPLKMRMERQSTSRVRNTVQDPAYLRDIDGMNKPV

[16] = target: Alpha-2B adrenergic receptor (Homo sapiens) (UniProt P18089); conditions: Compound concentration 10.0 uM
Sequence of Alpha-2B adrenergic receptor (Homo sapiens) (P18089 whole entry): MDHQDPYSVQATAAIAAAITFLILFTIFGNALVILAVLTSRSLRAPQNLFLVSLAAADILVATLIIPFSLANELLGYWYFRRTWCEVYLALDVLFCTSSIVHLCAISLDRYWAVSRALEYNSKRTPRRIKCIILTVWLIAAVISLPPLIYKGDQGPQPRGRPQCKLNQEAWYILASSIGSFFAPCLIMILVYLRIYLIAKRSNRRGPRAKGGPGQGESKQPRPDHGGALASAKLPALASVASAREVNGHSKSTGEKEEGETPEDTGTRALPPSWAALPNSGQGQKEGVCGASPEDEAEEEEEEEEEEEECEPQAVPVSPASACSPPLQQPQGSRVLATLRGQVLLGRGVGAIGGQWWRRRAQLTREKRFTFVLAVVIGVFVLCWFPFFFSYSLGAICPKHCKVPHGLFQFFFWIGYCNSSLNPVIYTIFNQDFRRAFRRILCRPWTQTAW

[17] = target: D(4) dopamine receptor (Homo sapiens) (UniProt P21917); conditions: Compound concentration 10.0 uM
[18] = organism: Rattus norvegicus; conditions: Compound concentration 10.0 uM
[19] = target: Delta-type opioid receptor (Homo sapiens) (UniProt P41143); conditions: Compound concentration 10.0 uM
Sequence of Delta-type opioid receptor (Homo sapiens) (P41143 whole entry): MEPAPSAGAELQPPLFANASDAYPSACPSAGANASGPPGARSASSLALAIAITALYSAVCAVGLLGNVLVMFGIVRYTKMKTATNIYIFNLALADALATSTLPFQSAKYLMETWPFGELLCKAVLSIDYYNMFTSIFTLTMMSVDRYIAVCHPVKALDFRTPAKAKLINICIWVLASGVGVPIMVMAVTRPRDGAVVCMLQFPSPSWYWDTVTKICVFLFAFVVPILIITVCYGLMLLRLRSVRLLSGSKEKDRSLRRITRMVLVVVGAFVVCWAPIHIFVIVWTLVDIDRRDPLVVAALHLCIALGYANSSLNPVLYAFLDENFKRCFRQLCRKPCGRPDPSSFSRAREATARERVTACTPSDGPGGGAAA

[20] = target: Muscarinic acetylcholine receptor M5 (Homo sapiens) (UniProt P08912); conditions: Compound concentration 10.0 uM
[21] = target: T3, Histamine H4 receptor (Homo sapiens, UniProt Q9H3N8); experiment: GPCRScan assay: inhibition of H4; design: radioligand conc. used [nm] 1.0 – 5.0, parental cells HEK T
T3 sequence (Q9H3N8 whole entry): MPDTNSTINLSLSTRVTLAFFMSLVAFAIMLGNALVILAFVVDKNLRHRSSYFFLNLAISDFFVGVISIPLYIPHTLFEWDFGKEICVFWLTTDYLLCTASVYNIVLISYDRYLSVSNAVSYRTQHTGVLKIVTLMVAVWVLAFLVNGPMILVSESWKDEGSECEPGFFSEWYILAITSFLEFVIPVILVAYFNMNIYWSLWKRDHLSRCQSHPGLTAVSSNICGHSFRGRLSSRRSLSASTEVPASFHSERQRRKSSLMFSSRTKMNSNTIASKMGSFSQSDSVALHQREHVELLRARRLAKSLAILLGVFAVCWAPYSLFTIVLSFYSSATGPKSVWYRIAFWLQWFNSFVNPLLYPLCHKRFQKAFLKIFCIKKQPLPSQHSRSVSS

[22] = target: Mu-type opioid receptor (Homo sapiens) (UniProt P35372); conditions: Compound concentration 10.0 uM
[23] = target: Peptidyl-prolyl cis-trans isomerase FKBP3 (Homo sapiens, UniProt Q00688); experiment: Competitive fluorescence polarization binding assay (FKBP3)
[24] = target: 5-hydroxytryptamine receptor 2C (Homo sapiens, UniProt P28335); experiment: GPCRScan assay: inhibition of 5-HT2C; design: radioligand conc. used [nm] 1.0 – 2.5, parental cells HEK T
[25] = target: D(3) dopamine receptor (Homo sapiens) (UniProt P35462); conditions: Compound concentration 10.0 uM
[26] = target: Alpha-1A adrenergic receptor (Homo sapiens) (UniProt P35348); conditions: Compound concentration 10.0 uM
[27] = target: T4, GABA-A receptor; anion channel (Rattus norvegicus) (UniProt O09028+P15431+P18506+P18508+P19969+P20236+P23574+P23576+P28471+P28473+P30191+P62813+P63079+P63138+Q91ZM7+Q9ES14); conditions: Compound concentration 10.0 uM
[28] = target: Histamine H3 receptor (Homo sapiens) (UniProt Q9Y5N1); conditions: Compound concentration 10.0 uM
[29] = target: T5, D(2) dopamine receptor (Homo sapiens, UniProt P14416); experiment: GPCRScan assay: inhibition of D2; design: radioligand conc. used [nm] 0.4 – 1.0, parental cells stable fibroblast
T5 sequence (P14416 whole entry): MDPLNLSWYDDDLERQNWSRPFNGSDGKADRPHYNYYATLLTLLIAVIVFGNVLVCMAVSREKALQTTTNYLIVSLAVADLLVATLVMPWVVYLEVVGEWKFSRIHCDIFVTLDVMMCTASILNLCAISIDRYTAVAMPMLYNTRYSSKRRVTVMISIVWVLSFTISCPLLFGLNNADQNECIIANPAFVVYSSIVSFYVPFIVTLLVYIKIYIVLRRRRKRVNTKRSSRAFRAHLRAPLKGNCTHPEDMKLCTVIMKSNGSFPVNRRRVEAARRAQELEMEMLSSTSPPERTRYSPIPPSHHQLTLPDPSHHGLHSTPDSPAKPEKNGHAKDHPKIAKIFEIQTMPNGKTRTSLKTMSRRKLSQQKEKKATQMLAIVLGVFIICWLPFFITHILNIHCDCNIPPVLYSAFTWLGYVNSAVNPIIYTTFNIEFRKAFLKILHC

[30] = target: 5-hydroxytryptamine receptor 1A (Homo sapiens) (UniProt P08908); conditions: Compound concentration 10.0 uM
[31] = target: 5-hydroxytryptamine receptor 2A (Homo sapiens) (UniProt P28223); conditions: Compound concentration 10.0 uM
[32] = target: Muscarinic acetylcholine receptor M4 (Homo sapiens) (UniProt P08173); conditions: Compound concentration 10.0 uM
[33] = target: Beta-1 adrenergic receptor (Homo sapiens) (UniProt P08588); conditions: Compound concentration 10.0 uM
[34] = target: T5, D(2) dopamine receptor; conditions: Compound concentration 10.0 uM
[35] = target: Alpha-1B adrenergic receptor (Homo sapiens) (UniProt P35368); conditions: Compound concentration 10.0 uM
[36] = target: T6, Sigma intracellular receptor 2 (Homo sapiens, UniProt Q5BJF2); experiment: GPCRScan assay: inhibition of Sigma 2; design: radioligand conc. used [nm] 5.0, parental cells HEKT
T6 sequence (Q5BJF2 whole entry): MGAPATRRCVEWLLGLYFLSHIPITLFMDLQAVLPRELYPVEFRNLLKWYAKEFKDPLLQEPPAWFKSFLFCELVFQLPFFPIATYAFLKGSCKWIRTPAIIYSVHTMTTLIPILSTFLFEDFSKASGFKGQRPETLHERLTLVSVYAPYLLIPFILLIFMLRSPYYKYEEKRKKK

[37] = target: 5-hydroxytryptamine receptor 2B (Homo sapiens) (UniProt P41595); conditions: Compound concentration 10.0 uM
[38] = target: Histamine H1 receptor (Homo sapiens) (UniProt P35367); conditions: Compound concentration 10.0 uM
[39] = target: T4, GABA-A receptor; anion channel (Rattus norvegicus); conditions: Compound concentration 10.0 uM; remark: listed apart in the source
[40] = target: T7, Sodium-dependent noradrenaline transporter (Homo sapiens, UniProt P23975); conditions: Compound concentration 10.0 uM
T7 sequence (P23975 whole entry): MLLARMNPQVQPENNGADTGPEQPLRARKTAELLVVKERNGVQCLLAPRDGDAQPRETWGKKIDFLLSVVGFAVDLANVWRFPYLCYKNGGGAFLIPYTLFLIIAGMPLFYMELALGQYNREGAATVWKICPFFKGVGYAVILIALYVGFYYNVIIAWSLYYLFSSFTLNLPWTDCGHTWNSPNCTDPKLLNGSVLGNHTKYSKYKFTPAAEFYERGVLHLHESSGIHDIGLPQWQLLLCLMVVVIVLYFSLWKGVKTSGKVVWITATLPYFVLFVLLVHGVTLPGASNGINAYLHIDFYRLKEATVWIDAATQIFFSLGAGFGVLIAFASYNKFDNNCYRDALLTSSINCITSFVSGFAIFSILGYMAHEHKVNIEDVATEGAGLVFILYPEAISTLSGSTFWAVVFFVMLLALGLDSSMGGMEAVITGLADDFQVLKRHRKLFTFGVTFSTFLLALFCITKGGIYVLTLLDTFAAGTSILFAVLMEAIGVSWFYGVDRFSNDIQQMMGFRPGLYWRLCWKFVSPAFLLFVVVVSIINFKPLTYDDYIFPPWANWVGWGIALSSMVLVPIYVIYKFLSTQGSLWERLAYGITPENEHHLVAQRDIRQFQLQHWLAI

[41] = target: Muscarinic acetylcholine receptor M3 (Homo sapiens) (UniProt P20309); conditions: Compound concentration 10.0 uM
[42] = target: T3, Histamine H4 receptor; conditions: Compound concentration 10.0 uM
[43] = target: 5-hydroxytryptamine receptor 6 (Homo sapiens) (UniProt P50406); conditions: Compound concentration 10.0 uM
[44] = target: T8, Histamine H2 receptor (Homo sapiens, UniProt P25021); conditions: Compound concentration 10.0 uM
T8 sequence (P25021 whole entry): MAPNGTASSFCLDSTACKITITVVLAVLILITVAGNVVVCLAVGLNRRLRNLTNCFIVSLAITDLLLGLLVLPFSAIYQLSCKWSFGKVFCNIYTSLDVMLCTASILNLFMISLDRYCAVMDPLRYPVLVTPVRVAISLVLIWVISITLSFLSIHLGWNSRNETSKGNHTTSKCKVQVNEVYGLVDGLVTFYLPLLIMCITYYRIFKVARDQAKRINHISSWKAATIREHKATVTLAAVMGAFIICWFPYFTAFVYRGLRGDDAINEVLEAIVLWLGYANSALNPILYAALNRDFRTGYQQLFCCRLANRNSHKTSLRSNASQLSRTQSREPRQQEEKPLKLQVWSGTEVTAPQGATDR

[45] = target: 5-hydroxytryptamine receptor 3A (Homo sapiens) (UniProt P46098); conditions: Compound concentration 10.0 uM
[46] = target: Muscarinic acetylcholine receptor M2 (Homo sapiens) (UniProt P08172); conditions: Compound concentration 10.0 uM
[47] = target: T9, 5-hydroxytryptamine receptor 1D (Homo sapiens, UniProt P28221); conditions: Compound concentration 10.0 uM
T9 sequence (P28221 whole entry): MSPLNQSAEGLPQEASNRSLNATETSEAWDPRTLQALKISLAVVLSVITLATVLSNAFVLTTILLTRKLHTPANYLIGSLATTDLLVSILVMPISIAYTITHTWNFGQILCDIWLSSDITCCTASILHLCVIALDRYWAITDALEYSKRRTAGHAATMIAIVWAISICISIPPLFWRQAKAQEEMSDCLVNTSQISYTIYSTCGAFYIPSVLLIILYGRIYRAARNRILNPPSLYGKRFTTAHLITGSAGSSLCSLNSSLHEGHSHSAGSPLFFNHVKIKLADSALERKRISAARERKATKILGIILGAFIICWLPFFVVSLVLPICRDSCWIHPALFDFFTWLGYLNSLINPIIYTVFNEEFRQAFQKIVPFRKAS

[48] = target: D(1A) dopamine receptor (Homo sapiens) (UniProt P21728); conditions: Compound concentration 10.0 uM
Sequence of D(1A) dopamine receptor (Homo sapiens) (P21728 whole entry): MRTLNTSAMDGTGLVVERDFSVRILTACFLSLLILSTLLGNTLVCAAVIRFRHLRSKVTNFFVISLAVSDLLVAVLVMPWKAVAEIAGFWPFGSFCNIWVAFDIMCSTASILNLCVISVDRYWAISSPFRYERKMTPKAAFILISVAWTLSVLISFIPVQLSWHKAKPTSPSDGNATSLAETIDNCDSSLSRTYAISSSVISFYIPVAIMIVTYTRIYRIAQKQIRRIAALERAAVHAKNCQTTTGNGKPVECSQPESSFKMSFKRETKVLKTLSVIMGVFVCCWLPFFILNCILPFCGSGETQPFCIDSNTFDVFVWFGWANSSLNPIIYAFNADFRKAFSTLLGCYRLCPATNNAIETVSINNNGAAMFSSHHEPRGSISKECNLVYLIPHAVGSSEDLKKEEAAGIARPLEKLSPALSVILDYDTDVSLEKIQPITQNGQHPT

[49] = target: T6, Sigma intracellular receptor 2; conditions: Compound concentration 10.0 uM
[50] = target: Sodium-dependent serotonin transporter (Homo sapiens) (UniProt P31645); conditions: Compound concentration 10.0 uM
[51] = target: T1, Sodium-dependent dopamine transporter; experiment: GPCRScan assay: inhibition of DAT; design: radioligand conc. used [nm] 3.6 – 16.0, parental cells stable HEK
[52] = target: T2, Sigma non-opioid intracellular receptor 1; experiment: GPCRScan assay: inhibition of Sigma 1; design: radioligand conc. used [nm] 4.0 – 5.0, parental cells HEKT
[53] = target: T7, Sodium-dependent noradrenaline transporter; experiment: GPCRScan assay: inhibition of NET; design: radioligand conc. used [nm] 1.3 – 5.0, parental cells stable HEK
[54] = target: T9, 5-hydroxytryptamine receptor 1D; experiment: GPCRScan assay: inhibition of 5-HT1D; design: radioligand conc. used [nm] 1.0 – 2.0, parental cells HEKT
[55] = target: 5-hydroxytryptamine receptor 1E (Homo sapiens) (UniProt P28566); conditions: Compound concentration 10.0 uM
[56] = target: T8, Histamine H2 receptor; experiment: GPCRScan assay: inhibition of H2; design: radioligand conc. used [nm] 0.02 – 0.05, parental cells Stable HEK

Compound: COc1ccc(CC[C@@H](OC(=O)[C@@H]2CCCCN2C(=O)[C@H](c2cc(OC)c(OC)c(OC)c2)C2CCCCC2)c2cccc(OCCN3CCOCC3)c2)cc1OC
- inhibition [1]: 23.8%
- inhibition [2]: 7.5%
- inhibition [3]: 3%
- Kd [4]: 1050 nM (not active)
- inhibition [5]: 49.7%
- inhibition [6]: 37.1%
- inhibition [7]: 0.6%
- inhibition [8]: 25.9%
- inhibition [9]: 9.2%
- inhibition [10]: 14.5%
- Kd [11]: > 50000 nM (not active)
- inhibition [12]: 41%
- inhibition [13]: 49.4%
- inhibition [14]: 56.1%
- inhibition [15]: 5.9%
- inhibition [16]: 7.6%
- inhibition [17]: 8.1%
- inhibition [18]: 3.1%
- inhibition [19]: 13.4%
- inhibition [20]: 20.5%
- Ki [21]: 3380 nM
- inhibition [22]: 20.9%
- Kd [23]: > 10000 nM (not active)
- Ki [24]: > 10000 nM
- inhibition [25]: 39.7%
- inhibition [26]: 6.7%
- inhibition [27]: -9.9%
- inhibition [28]: 12.9%
- Ki [29]: > 10000 nM
- inhibition [30]: -0.3%
- inhibition [31]: 21.9%
- inhibition [32]: 3.4%
- inhibition [33]: -6.5%
- inhibition [34]: 50%
- inhibition [35]: -1.1%
- Ki [36]: 226 nM
- inhibition [37]: 8.5%
- inhibition [38]: 37.9%
- inhibition [39]: 17.2%
- inhibition [40]: 36.9%
- inhibition [41]: 0.4%
- inhibition [42]: 71.8%
- inhibition [43]: 9.5%
- inhibition [44]: 30.3%
- inhibition [45]: 7.6%
- inhibition [46]: 7%
- inhibition [47]: 15.5%
- inhibition [48]: 24.3%
- inhibition [49]: 84.9%
- inhibition [50]: 9.5%

Compound: COc1ccc(CC[C@@H](OC(=O)[C@H]2CCCCN2C(=O)[C@@H](c2cc(OC)c(OC)c(OC)c2)C2CCCCC2)c2cccc(OCCN3CCOCC3)c2)cc1OC
- inhibition [1]: 26.6%
- inhibition [2]: 4.82%
- inhibition [3]: -3.87%
- inhibition [5]: 25.2%
- inhibition [6]: 35.1%
- inhibition [7]: 30.2%
- inhibition [8]: 6.87%
- inhibition [9]: 4.07%
- inhibition [12]: 68.4%
- inhibition [13]: 58.1%
- Ki ([51]; read-out: Ki): 2180 nM
- Ki ([51]; read-out: pKi (converted)): 2190 nM
- inhibition [15]: 5.75%
- inhibition [16]: 19.7%
- inhibition [17]: 9.71%
- Ki [52]: 2850 nM
- inhibition [19]: 4.39%
- inhibition [20]: -1.68%
- inhibition [22]: 4.34%
- inhibition [25]: 28.1%
- inhibition [27]: 20.6%
- inhibition [28]: 10.2%
- inhibition [30]: 12.2%
- inhibition [31]: 4.4%
- inhibition [32]: 18%
- inhibition [33]: -0.58%
- inhibition [34]: 14.7%
- inhibition [35]: -5.8%
- Ki [36]: 409 nM
- inhibition [37]: 19.4%
- inhibition [38]: 14.2%
- Ki [53]: > 10000 nM
- pKi [53]: < 5
- inhibition [40]: 52.4%
- inhibition [41]: -3.44%
- Ki ([54]; read-out: Ki): 3130 nM
- Ki ([54]; read-out: pKi (converted)): 3090 nM
- inhibition [42]: 49.5%
- inhibition [44]: 50.7%
- inhibition [45]: 0.13%
- inhibition [55]: 12.6%
- inhibition [47]: 57%
- Ki ([56]; read-out: Ki): 2960 nM
- Ki ([56]; read-out: pKi (converted)): 2690 nM
- inhibition [48]: 19.1%
- inhibition [49]: 98.4%
- inhibition [50]: -5.1%
